Source: patent EP1541559A1, “5-SUBSTITUTED ISOQUINOLINE DERIVATIVE” (Asahi Kasei Pharma Corporation, priority 2002, dated 2004)
Like-named read-outs stand apart in the source and are kept apart here.

Experiments:
[1] = test system: myosin regulatory light chain; assay: Action on amount of phosphorylated myosin regulatory light chain in the cells (Test Example 1); assay type: cell-based, human; settings: neutrophils of healthy volunteers, reaction with test compound at 25°C for 5 minutes, read-out: Inhibition of myosin regulatory light chain phosphorylation (IC50: µM)
Experimental: The neutrophils were washed with PBS(-) and resuspended in Hanks' Balanced Salt Solution (HBSS+, Gibco) to prepare a cell suspension (8 x 10^6/ml). The cell suspension was diluted to 5 x 10^6/ml, introduced into Eppendorf tubes in a volume of 0.4 ml each, then 0.1 ml each of solutions of a test compound at various concentrations were added to the suspension and allowed to react at 25°C for 5 minutes. After the reaction, 0.1 ml of trichloroacetic acid solution was added to each reaction, the reaction mixture was gently shaken and centrifuged at 12,000 rpm (4°C, 5 minutes), and the supernatant was removed. Subsequently, 3 μl of 1 M Tris solution was added to the residue, the mixture was further mixed with 50 μl of extraction buffer (8 M urea, 0.02% 2-mercaptoethanol, 0.002% bromophenol blue) and left stand at room temperature for 1 hour. Then, the reaction mixture was loaded on a spin column (0.45 μm, Millipore) to remove the insoluble solids and a sample buffer for SDS polyacrylamide gel electrophoresis (25 mM, Tris-HCl pH 6.8, 2.5% 2-mercaptoethanol, 2% sodium dodecylsulfate, 5% sucrose, 0.002% bromophenol blue as final concentrations) was added, and 10 μl of each sample was subjected to electrophoresis. […] J. Physiol., 274, […]-[…] (1998)), which specifically recognize the phosphorylated myosin regulatory light chain, and donkey anti-mouse IgG (Chemicon) conjugated with horseradish peroxidase (HRP-labeled). The band of the phosphorylated myosin regulatory light chain was detected on a film by using ECL Plus Kit (Amersham Pharmacia Biotech). This band was subjected to quantification using a densitometer. By using this value, the inhibitory ratio (%) for phosphorylation of the myosin regulatory light chain was calculated by using the following equation.

thoracic aorta = assay: Vasoconstriction inhibitory action on aorta rings constricted with phenylephrine (Test Example 2); set-up: species or system Rats (Wistar, 11-week old); settings: aorta constricted with phenylephrine (1 µM); for vasoconstriction inhibitory action: result in words; for inhibition at 1 µM: Rattus norvegicus, test compound 1 µM, read-out: Vasoconstriction inhibitory action (relaxation ratio) (%)
Description: Rats (Wistar, 11-week old) were bleeded to death and laparotomized to take out the thoracic aorta.

Neutrophils = assay: Neutrophil migration inhibitory action, Boyden Chamber, FMLP (Test Example 5); assay type: cell-based, human; settings: Homo sapiens, Neutrophil, 0.5 h, FMLP (1 µM), migration at 37°C for 30 minutes; read-out: Neutrophil migration inhibition IC50
Experimental: Neutrophils were isolated from 50 to 100 ml of peripheral blood collected from healthy donors by the method described in Test Example 1 to obtain a cell suspension (8 x 10^6/ml). Subsequently, solutions of a test compound at various concentrations were introduced into wells of a 96-well plate in a volume of 125 µl per well, the cell suspension of an equivalent volume was added to it and the plate was preincubated at room temperature for 5 minutes. During the preincubation, FMLP (1 µM, Sigma) solution was added to the lower chamber to set Boyden Chamber, the preincubated cell suspension was added to the upper chamber in a volume of 200 µl per well, and the cells were allowed to migrate at 37°C under 5% carbon dioxide for 30 minutes. The filter after the migration was collected, and the non-migrated cells adhered to the surface that faced the upper chamber were carefully wiped off. Then, the migrated cells on the back surface were stained with DifQuick dye solution (International Reagents), washed with water and dried, and then absorbance was measured at 595 nm. The inhibition ratio against migration (%) of a test compound was calculated by using the following equation: Migration inhibition ratio (%) = (1 -Absorbance of the group with addition of test compound /Absorbance of the group without addition of test compound) x 100 [formula]

[2] = test system: human neutrophil fraction; assay: Action on increase of intracellular calcium concentration, Fura2-AM, fMLP (Test Example 7); assay type: cell-based; settings: test compound 1 µM added 3 minutes before fMLP (1 µM), R = F340/F380, without test compound = 100%, read-out: Maximum R value (%)
Experimental: According to the method described in Test Example 1, a neutrophil containing fraction was prepared. Fura2-AM (Sigma) at a final concentration of 3 µM was added to the human neutrophil fraction and the mixture was incubated at 37°C for 1 hour. After centrifugation (250 g for 5 minutes), the supernatant was discarded, and the neutrophils were resuspended in Hanks' Balanced Salt Solution (HBSS, Gibco) to prepare a cell suspension (8 x 10^6/ml) for measurement of intracellular calcium concentration. The cell suspension for measurement of intracellular calcium concentration was left stand at room temperature for 30 minutes. Then, 490 µl of the cell suspension for measurement of intracellular calcium concentration was placed in a cuvette, 10 µl of calcium chloride solution at a final concentration of […] was added to it and the cuvette was set in an intracellular calcium concentration analyzer (CAF110, Nippon Bunko). fMLP (Sigma) solution at a final concentration of 1 µM was added to the cell suspension, and F340 and F380, which are fluorescence intensity at 340 nm and 380 nm, respectively, were measured to obtain an R value (F340/F380) as an index of the intracellular calcium concentration. A test compound (1 µM) was added 3 minutes before the addition of fMLP, and the action on the intracellular calcium concentration was observed. The ratios of the maximum R value obtained with addition of each test compound, based on the maximum R value obtained without addition of test compound and taken as 100%, are shown in Table 10 mentioned below.

BALB/c female mice = assay: Respiratory tract inflammation suppressing action, OVA-induced (Test Example 6); assay type: in vivo; settings: for Total WBC count x 10E5/ml/mouse: orally 30 mg/kg once a day for 5 days, inhalation of 2% OVA, alveoli washed after 24 hours
Experimental: According to the method described in Henderson, W.R., et al., Am. J. Respir. Cric. Care Med., 165(1), 108-116 (2002), suppressing action on bronchial inflammation was confirmed. BALB/c female mice (7-week old) were used for the test, each group consisting of 7 mice, and the control group consisting of 11 or 12 mice. The mice were intraperitoneally administered with ovalbumin (OVA, 100 ng, Sigma) and 1 mg of aluminum hydroxide for initial immunization, and after 2 weeks, they are subcutaneously administered with 10 ng of OVA as additional immunization. After further 1 week, a test compound was dissolved in water containing 0.5% carboxymethylcellulose and orally administered (30 mg/kg) to the test animals once a day for 5 days. The control group was similarly given only with water containing 0.5% carboxymethylcellulose. After 1 hour, the mice were orally inhaled with 2% OVA for 10 minutes to induce a respiratory tract inflammation. Further, the control group, in which the mice were not given with the test compound, was divided into a positive control group (n = 7), in which the mice were inhaled with 2% OVA to induce the reaction, and a negative control group (n = 4 or 5), in which the mice were similarly inhaled with physiological saline. After 24 hours, alveoli in the lungs of the test animals were washed with physiological saline, and the total infiltrated white blood cells (WBC) were counted.

[3] = test system: ovalbumin-immunized guinea pigs; assay: Respiratory tract constriction suppression action, ovalbumin-induced (Test Example 3); assay type: in vivo, Hartley guinea pigs; settings: result in words; test medicament given into hind leg vein after induction with 0.3 mg/kg ovalbumin, measured for 15 minutes
Experimental: Four-week old Hartley guinea pigs (male) were immunized by intraperitoneal administration of ovalbumin (Sigma, Grade V) in amounts of 1 mg for each animal on the day on which the experiment was started, 3 mg for each animal after 2 days, and 10 mg for each animal after 4 days. Twelve to fourteen days after the final immunization, the ovalbumin-immunized guinea pigs were anesthetized by intraperitoneal administration of about 40 mg/kg of pentobarbital (Somnopentyl), and the tracheas were taken out. Subsequently, a cannula (SP-110, Natsume) was inserted into each trachea, and one end of the cannula was connected to an artificial respirator (Model-b83, Harvard). The aeration conditions were set at 6 ml per kilogram and 60 times per 1 minute. Further, a cannula for medicament administration (JMS wing needle 23G 3/4) was inserted into a hind leg vein. Myoblock (Organon Technica) was administered in an amount of 0.5 mg/kg from the cannula inserted into the hind leg vein to stop the spontaneous breathing, and after 2 or 3 minutes, 0.3 mg/kg of ovalbumin was administered to induce constriction of respiratory tract. The increase of airway resistance value 2 minutes after the induction (measurement apparatuses: pressure transducer TR-603T, respiratory amplifier AR-601G, and recorder RTA-3100, Nihon Kohden Corp.) was confirmed to be above 80 cm H2O or higher, and then, a solution of a test medicament was administered from the cannula inserted into the hind leg vein, and the airway resistance value was continuously measured for 15 minutes after the administration to determine the effect.

Japanese white rabbit = assay: Intraocular pressure reducing action (Test Example 4); assay type: in vivo; settings: result in words
Experimental: A Japanese white rabbit having a body weight of about 2 kg was placed in a positioner and naturalized for one week before the experiment. An ophthalmologic local […] (Benoxil) was administered to the left eye, and then intraocular pressure was measured by using a tonometer (Classic 30, Solan). The initial value of the intraocular pressure was measured, then 50 μl of a test compound (1% aqueous solution) was dropped to the left eye, and after 2 hours, the intraocular pressure was measured. The intraocular pressure reducing action of the test compounds is shown in Table 7 mentioned below as ratios (%) of reduction of intraocular pressure based on the initial value of the intraocular pressure.

[4] = Homo sapiens, Neutrophil, 5 min

SMILES | IC50 [1, 4] | vasoconstriction inhibitory action (thoracic aorta) | IC50 (Neutrophils) | activity at 1 µM [2] | Total WBC count x 10E5/ml/mouse (BALB/c female mice) | IC50 ([1]; hydrochloride) | constriction of respiratory tract (airway resistance value) [3] | intraocular pressure reducing activity (Japanese white rabbit) | inhibition at 1 µM (thoracic aorta) | infiltrated white blood cell number (BALB/c female mice; result in words)
Cl.NCCCN(CCCc1ccccc1)S(=O)(=O)c1cccc2c(N)nccc12 [Example 8, N-[(1-Amino-5-isoquinolyl)sulfonyl]-N-(3-phenylpropyl)-1,3-propylenediamine hydrochloride] | 0.3 µM | significant vasoconstriction inhibitory action | ≤ 1 µM | 99% | – | – | – | – | – | –
Cc1cncc2cccc(S(=O)(=O)N(CCCN)CCCc3ccccc3)c12.Cl [Example 5, N-[(4-Methyl-5-isoquinolyl)sulfonyl]-N-(3-phenylpropyl)-1,3-propylenediamine hydrochloride] | 0.8 µM | significant vasoconstriction inhibitory action | ≤ 1 µM | 98% | – | – | – | – | – | –
Cl.NCCCOc1cccc2c(N)nccc12 [Example 10, 3-[(1-Amino-5-isoquinolyl)oxy]propylamine hydrochloride] | 10 µM | – | 1 to 10 µM | 99% | 150 x 10E5/ml/mouse | – | – | – | – | –
Cc1cncc2cccc(NC3CCN(CCO)CC3)c12.Cl [Example 146, 1-(2-Hydroxyethyl)-4-(4-methyl-5-isoquinolyl)aminopiperidine hydrochloride] | ≤ 40 µM | significant vasoconstriction inhibitory action | ≤ 40 µM | – | – | ≤ 20 µM | significantly improved the constriction of respiratory tract | significant intraocular pressure reducing activity | – | –
Cl.NCCCN(CCCc1ccccc1)S(=O)(=O)c1cccc2cnccc12 [Example 1, N-[(5-Isoquinolyl)sulfonyl]-N-(3-phenylpropyl)-1,3-propylenediamine hydrochloride] | 0.8 µM | – | ≤ 1 µM | 98% | 300 x 10E5/ml/mouse | – | – | – | 73.8% | –
Cc1cncc2cccc(NC3CCNCC3)c12.Cl [Example 106, 4-(4-Methyl-5-isoquinolyl)aminopiperidine hydrochloride] | ≤ 40 µM | significant vasoconstriction inhibitory action | 10 to 40 µM | – | – | ≤ 20 µM | significantly improved the constriction of respiratory tract | – | – | decrease of infiltrated white blood cell number
Cl.c1cc(NC2CCNCC2)c2ccncc2c1 [Example 20, 4-(5-Isoquinolyl)aminopiperidine hydrochloride] | 1.8 µM | – | 1 to 10 µM | 100% | – | – | significantly improved the constriction of respiratory tract | – | 82.8% | –
Cl.NCCN(CCS(=O)(=O)c1ccccc1)S(=O)(=O)c1cccc2cnccc12 [Example 7, N-[(5-Isoquinolyl)sulfonyl]-N-[2-(phenylsulfonyl)ethyl]ethylenediamine hydrochloride] | 30 µM | – | – | 101% | 400 x 10E5/ml/mouse | – | – | – | 64.3% | –
Cl.NCCN(CCS(=O)(=O)c1ccccc1)S(=O)(=O)c1cccc2c(O)nccc12 [Example 12, N-[(1-Hydroxy-5-isoquinolyl)sulfonyl]-N-[2-(phenylsulfonyl)ethyl]ethylenediamine hydrochloride] | 20 µM | significant vasoconstriction inhibitory action | 1 to 10 µM | – | 100 x 10E5/ml/mouse | – | significantly improved the constriction of respiratory tract | – | – | –
